Data published in patent US20150050368A1, “METHOD FOR PRODUCING A PLANT EXTRACT FROM DESMODIUM AND ITS EXTRACT THEREOF” (priority 2012, published 2015).

Tests used:
[1] = system: carrageenan-induced oedema of the paw; cotton pellet granuloma; conditions: cited from earlier work
3T3-L1 adipocytes = conditions: cited from earlier work
[2] = system: streptozotocin-induced diabetic mice; conditions: mouse, in vivo; cited from earlier work
[3] = system: streptozotocin-induced diabetic rats; conditions: rat, in vivo; cited from earlier work
[4] = system: liver injury induced by galactosamine; experiment: preventive effect of Desmodium adscendens decoction against galactosamine-induced liver injury in rats; assay type: in vivo, Sprague Dawley rats; conditions: 48 h after D-galactosamine 650 mg/kg IP; oral gavage; Desmodium equivalent to 20 or 5 mg/kg D-pinitol, D-pinitol 20 mg/kg, silymarin 20 mg/kg
Excerpt: As far as the in vivo evaluation of the hepato-protective effect of Desmodium adscendens decoction is concerned, D-pinitol has a hepato-protective effect. One of the constituents of Desmodium adscendens is D-pinitol. […] In this in vivo experiment the preventive effect of a decoction of Desmodium adscendens against liver injury induced by galactosamine was investigated in rats. Silymarin was used as the reference agent. Silymarin is a mixture of various flavanolignans from the fruits of the milk thistle plant, Silybum marianum. The principal components are silybin, […]. In addition, small quantities of isosilybin are present in milk thistle. […] The liver injury and the possible hepato-protective effect were evaluated by determining the following parameters in serum: ALT (=GPT), AST (=GOT), ALP. […] After administration of the hepatotoxic agent D-galactosamine, both after 24 h and after 48 h, liver injury was observed through a marked increase in the three parameters determined (control vs. hepatotox).

[5] = system: patients with type 2 diabetes; conditions: cited from earlier work
[6] = system: liver injury with galactosamine; conditions: after induction of liver injury with galactosamine; cited from earlier work
[7] = system: severely insulin-resistant mice; conditions: mouse, in vivo; cited from earlier work
foam cells = conditions: cited from earlier work
[8] = system: LPS-induced dendritic bone marrow cells; conditions: cited from earlier work
[9] = system: insulin-resistant patients; conditions: 20 mg/kg/day for 4 weeks; cited from earlier work
[10] = system: ethanol-induced liver injury; experiment: protective effect against ethanol-induced liver injury in rats; assay type: in vivo, male Wistar rats
Excerpt: The purpose of the experiment is to evaluate the hepatoprotective effects of decoct of Desmodium adscendens against ethanol-induced liver injury, standardized to its primary ingredient: D-pinitol. Materials and Methods: 66 male Wistar rats of 200-225 g (Charles River, Brussels, Belgium) were randomly divided into 6 groups: the negative control group (CON: no hepatotoxic agent, no treatment: 8 rats), the hepatotoxic group (HEP: induction of hepatotoxicity, no treatment: 20 rats), the Desmodium I group (induction of hepatotoxicity, treatment with Desmodium adscendens decoct, equivalent to 2 mg/kg of D-pinitol: 10 rats), the group II Desmodium (induction of hepatotoxicity, treatment with Desmodium adscendens decoct, equivalent to 10 mg/kg of D-pinitol: 10 rats), the D-pinitol group (PIN: induction of hepatotoxicity, treatment with 10 mg/kg of D-pinitol: 10 rats), the positive control group (SIL: induction of hepatotoxicity, treatment with 20 mg/kg of silymarin: 8 rats). 2 days prior to ethanol administration, an appropriate amount of lyophilized decoct, pinitol silymarin or suspended in water and administered by gavage (or vehicle for the control group). Hepatotoxicity was induced by daily oral gavage with a 55% ethanol solution (except for the negative control group). […] Ethanol was administered for a period of 7 weeks. Was administered daily, depending on the group, treated with the specific decoct, pinitol or silymarin (oral gavage) to the end of the experiment. For ethanol administration (default values), and at weeks 3, 4, 5 and 6, blood samples (1.5 ml) were taken from the lateral tail vein (Multi Fat 600, Sarstedt). This experiment was approved by the Ethics Committee for Animal Experiments of the University of Antwerpen (17-01-2011, 2010-37).
A schematic overview of the different treatment groups is given below next. Concentrations of enzyme aspartate transaminase (AST, GOT) and alanine transaminase (ALT, GPT) were in the serum samples from the test animals as determined by routine laboratory techniques (Senior, 2009). Elevated levels can be considered as an indication of liver cell destruction or a change in membrane permeability.
Statistics to analyze the difference between CON and HEP for AST and ALT, and between HEP and DES 1, DES 2, PIN and SIL for AST and ALT, was a mixed model analyze performed. The log-rank test was performed for statistical analysis of survival data.

L6 rat muscle cells = conditions: cited from earlier work
[11] = system: older, non-diabetic patients; conditions: intake for 6 weeks; cited from earlier work
neutrophils = conditions: cited from earlier work
OVA-induced asthma = conditions: mouse, in vivo; cited from earlier work
[12] = in vivo; cited from earlier work
[13] = 13 weeks of treatment with 2×60 mg per day
[14] = after 4 weeks of ethanol, daily oral gavage, DES1 eq. 2, DES2 eq. 10 mg/kg D-pinitol, PIN 10 mg/kg, SIL 20 mg/kg
[15] = after 5 weeks of ethanol, daily oral gavage, DES1 eq. 2, DES2 eq. 10 mg/kg D-pinitol, PIN 10 mg/kg, SIL 20 mg/kg
[16] = after 6 weeks of ethanol, daily oral gavage, DES1 eq. 2, DES2 eq. 10 mg/kg D-pinitol, PIN 10 mg/kg, SIL 20 mg/kg

## CO[C@H]1[C@H](O)[C@@H](O)[C@@H](O)[C@H](O)[C@@H]1O [D-pinitol, 3-O-methyl-chiro-inositol]
[1]; carrageenan-induced oedema of the paw
  effect against acute inflammation: anti-inflammatory properties
[1]; cotton pellet granuloma
  effect against subacute inflammation: anti-inflammatory properties
3T3-L1 adipocytes; 1 mM
  expression of adiponectin mRNA: increases expression of adiponectin mRNA
3T3-L1 adipocytes; 0.5 and 1 mM
  mRNA expression of GLUT4, IRS, PPARγ and C/EBP: increases the mRNA expression
[2]
  hypoglycaemic effect: acute and chronic hypoglycaemic effect
[3]
  AST, ALT and alkaline phosphatase values in the liver: normalises
  blood glucose, haemoglobin and insulin: lowers blood glucose haemoglobin and increases insulin
  effect on lipids: lipid-lowering effect
[4]
  ALT (GPT) in serum compared with the hepatotoxic group: decreased significantly
  AST (GOT) in serum compared with the hepatotoxic group: decreased significantly
[5]; [13]
  HDL cholesterol values: increased
  total cholesterol, LDL/HDL ratio and systolic and diastolic blood pressures: decreased
[5]; human, in vivo
  fasting glucose values, HbA1c values and insulin: favourable effect
[5]; uncontrolled type 2 diabetes, 12 weeks, 20 mg/kg/day, in addition to the usual therapy
  fasting and postprandial glucose values and HbA1c values: improves
[5]; uncontrolled type 2 diabetes, 12 weeks, 20 mg/kg/day
  levels of adiponectin, leptin, C-reactive protein (CRP) and free fatty acids: does not significantly change
[6]
  AST and ALT liver values and TNF-α values: normalises
  lipid peroxidation: reduces lipid peroxidation
[7]
  efficacy: not effective
Foam cells
  formation of foam cells: moderately decreases
[8]; LPS-induced
  production of IL-12 and pro-inflammatory cytokines: reduces the production
[8]; in vitro and in vivo
  expression of MHC-I, MHC-II, CD80 and CD86: decreases the expression
[9]
  basal and insulin-mediated glucose or lipid metabolism: no effect
[10]; W0, DES1 eq. 2, DES2 eq. 10 mg/kg D-pinitol, PIN 10 mg/kg, SIL 20 mg/kg
  survival of test animals: 100%
[10]; W1 of ethanol, DES1 eq. 2, DES2 eq. 10 mg/kg D-pinitol, PIN 10 mg/kg, SIL 20 mg/kg
  survival of test animals: 100%
[10]; W2 of ethanol, DES1 eq. 2, DES2 eq. 10 mg/kg D-pinitol, PIN 10 mg/kg, SIL 20 mg/kg
  survival of test animals: 70%
[10]; W3 of ethanol, DES1 eq. 2, DES2 eq. 10 mg/kg D-pinitol, PIN 10 mg/kg, SIL 20 mg/kg
  survival of test animals: 60%
[10]; W4 of ethanol, DES1 eq. 2, DES2 eq. 10 mg/kg D-pinitol, PIN 10 mg/kg, SIL 20 mg/kg
  survival of test animals: 60%
[10]; W5 of ethanol, DES1 eq. 2, DES2 eq. 10 mg/kg D-pinitol, PIN 10 mg/kg, SIL 20 mg/kg
  survival of test animals: 50%
[10]; W6 of ethanol, DES1 eq. 2, DES2 eq. 10 mg/kg D-pinitol, PIN 10 mg/kg, SIL 20 mg/kg
  survival of test animals: 40%
[10]; W6 of ethanol, DES1 eq. 2, DES2 eq. 10 mg/kg D-pinitol, PIN 10 mg/kg, SIL 20 mg/kg, listed as PIN
  survival of test animals: 40%
[10]; [14]
  Serum ALT ALT_4 Average: 75.9
  Serum AST AST_4 Average: 89.3 U/I
[10]; [15]
  Serum ALT ALT_5 Mean: 61.6
  Serum AST AST_5 Average: 78.3 U/I
[10]; [16]
  Serum ALT ALT_6 Mean: 65.6
  Serum AST AST_6 Mean: 86.3 U/I
[10]; log-rank test, 6 weeks, DES 1 eq. 2, DES 2 eq. 10 mg/kg pinitol, pinitol 10 mg/kg, silymarin 20 mg/kg
  statistical difference in survival vs the hepatotoxic group: No statistically significant difference
L6 rat muscle cells; L6 muscle cells
  basal uptake of 2-deoxyglucose: increases the basal uptake of 2-deoxyglucose
L6 rat muscle cells; L6 rat muscle cells
  translocation of GLUT4 to the cell membrane: induces the translocation of GLUT4 to the cell membrane
[11]
  insulin-mediated glucose metabolism: no effect
neutrophils
  TNF-alpha expression: inhibits TNF-alpha expression
OVA-induced asthma
  hyperreactivity and inflammation observed in asthma: reduces
  number of inflammatory cells in bronchoalveolar lavage fluid: decreases
[12]
  metabolism in humans: metabolised partly to D-chiro-inositol
